Structures can show the parent of a compound that is named as a salt.
How the values were obtained:
active trigger points = test: Multicenter, randomized, placebo-controlled, double-blind dose response study of intramuscular PBZ: efficacy (Example II); type: in vivo, human
Protocol: (§1) This was a multicenter, randomized, placebo-controlled, double-blind, dose response study of intramuscular phenoxybenzamine hydrochloride (PBZ) versus vehicle and saline placebos. Phenoxybenzamine formulation known in the art (propylene glycol and alcohol) and diluted in saline at the time of injection were evaluated. […] Patients with pain in the most commonly affected regions, the upper and lower back, were studied. Patients enrolled in this study were male or female with 4 months to 8 years of myofascial pain syndrome with identifiable active trigger points. Patients were required to have had EMG documented triggers points and meet the criteria of <10 uV in the adjacent muscle site and have a minimum of a 2:1 ratio of trigger point amplitude: adjacent amplitude. Attempts were made to obtain maximum amplitude in the trigger point.
(§2) The primary objectives of this study were to evaluate the safety, tolerance, and efficacy of 4 doses (0.1, 0.3, 1.0, or 2.4 mg) of phenoxybenzamine per intramuscular injection site. The vehicle placebo group received vehicle in a concentration equivalent to the active doses. A second placebo was saline. All injections were of 0.3 ml in volume. Up to 10 trigger points were injected at each treatment session. There were up to 2 treatment sessions up to 10 days apart. The primary efficacy evaluation was made at week 12 of treatment. The Visual Analogue Pain Scale (VAS) was used to assess pain in the affected region before and after treatment. Secondary efficacy assessments included the McGill Pain Questionnaire (MPQ), the Spinal Function Sort (SFS) and the SF-36 Quality of Life questionnaire.

[1] = Multicenter placebo-controlled dose response study of intramuscular PBZ: safety and tolerance (Example II); type: in vivo, human
Protocol: as §1, §2
Thirty-two of the 79 patients (41%) in the saline placebo group, 33 of 83 patients (40%) in the vehicle placebo group, 35 of the 86 patients (41%) in the 1 mg group, and 37 of the 81 patients (46%) in the 2.4 mg group experienced 1 or more treatment-emergent adverse experiences. For all treatment groups combined, the most common adverse experiences observed were dizziness: 8%; pain 5%; nausea: 3%, and sweating: 3%. […] The most frequent adverse experiences were dizziness (8%) and pain (5%), followed by headache, sweating, and nausea (3% each).

[2] = cited from earlier work
[3] = 1 mg PBZ per injection site, 86 patients

## CC(COc1ccccc1)N(CCCl)Cc1ccccc1 (stereo not shown) [Phenoxybenzamine Hydrochloride, phenoxybenzamine hydrochloride]
Active trigger points; 1.0 mg and 2.4 mg in propylene glycol and alcohol composition
  efficacy of formulations in this study: ineffective
Active trigger points; 1.0 mg group, not statistically significant
  difference in percent change from baseline between placebo and active drug: 9.9%
Active trigger points; 2.4 mg group
  efficacy compared with placebo: equivalent to placebo
[1]; 0.1 mg PBZ per injection site
  Dizziness, % of patients: 5%
  Dizziness, number of patients: 1
  Ecchymosis, % of patients: 0 (0%)
  Ecchymosis, number of patients: 0 (0%)
  Flu syndrome, % of patients: 0 (0%)
  Flu syndrome, number of patients: 0 (0%)
  Headache, % of patients: 0 (0%)
  Headache, number of patients: 0 (0%)
  Hypotension, % of patients: 0 (0%)
  Hypotension, number of patients: 0 (0%)
  Infection, % of patients: 0 (0%)
  Infection, number of patients: 0 (0%)
  Injection site edema, % of patients: 0 (0%)
  Injection site edema, number of patients: 0 (0%)
  Nausea, % of patients: 0 (0%)
  Nausea, number of patients: 0 (0%)
  Pain, % of patients: 5%
  Pain, number of patients: 1
  Sweating, % of patients: 0 (0%)
  Sweating, number of patients: 0 (0%)
  Syncope, % of patients: 0 (0%)
  Syncope, number of patients: 0 (0%)
  TOTAL NUMBER OF PATIENTS reporting treatment-emergent adverse experiences, % of patients: (33%)
  TOTAL NUMBER OF PATIENTS reporting treatment-emergent adverse experiences, number: 7
[1]; 0.3 mg PBZ per injection site
  Dizziness, % of patients: 0 (0%)
  Dizziness, number of patients: 0 (0%)
  Ecchymosis, % of patients: 0 (0%)
  Ecchymosis, number of patients: 0 (0%)
  Flu syndrome, % of patients: 5%
  Flu syndrome, number of patients: 1
  Headache, % of patients: 5%
  Headache, number of patients: 1
  Hypotension, % of patients: 0 (0%)
  Hypotension, number of patients: 0 (0%)
  Infection, % of patients: 5%
  Infection, number of patients: 1
  Injection site edema, % of patients: 0 (0%)
  Injection site edema, number of patients: 0 (0%)
  Nausea, % of patients: 5%
  Nausea, number of patients: 1
  Pain, % of patients: 0 (0%)
  Pain, number of patients: 0 (0%)
  Sweating, % of patients: 0 (0%)
  Sweating, number of patients: 0 (0%)
  Syncope, % of patients: 0 (0%)
  Syncope, number of patients: 0 (0%)
  TOTAL NUMBER OF PATIENTS reporting treatment-emergent adverse experiences, % of patients: (23%)
  TOTAL NUMBER OF PATIENTS reporting treatment-emergent adverse experiences, number: 5
[1]; 1 mg PBZ per injection site
  Dizziness, % of patients: 13%
  Dizziness, number of patients: 11
  Ecchymosis, % of patients: 1 (1%)
  Ecchymosis, number of patients: 1 (1%)
  Flu syndrome, % of patients: 3 (3%)
  Flu syndrome, number of patients: 3 (3%)
  Headache, % of patients: 6%
  Headache, number of patients: 5
  Hypotension, % of patients: 2 (2%)
  Hypotension, number of patients: 2 (2%)
  Infection, % of patients: 2 (2%)
  Infection, number of patients: 2 (2%)
  Injection site edema, % of patients: 2 (2%)
  Injection site edema, number of patients: 2 (2%)
  Nausea, % of patients: 1 (1%)
  Nausea, number of patients: 1 (1%)
  Pain, % of patients: 8%
  Pain, number of patients: 7
  Sweating, % of patients: 3 (3%)
  Sweating, number of patients: 3 (3%)
  Syncope, % of patients: 2 (2%)
  Syncope, number of patients: 2 (2%)
[1]; [3]
  TOTAL NUMBER OF PATIENTS reporting treatment-emergent adverse experiences, % of patients: 41%
  TOTAL NUMBER OF PATIENTS reporting treatment-emergent adverse experiences, number: 35
[1]; 2.4 mg PBZ per injection site
  Dizziness, % of patients: (10%)
  Dizziness, number of patients: 8
  Ecchymosis, % of patients: 1 (1%)
  Ecchymosis, number of patients: 1 (1%)
  Flu syndrome, % of patients: 1 (1%)
  Flu syndrome, number of patients: 1 (1%)
  Headache, % of patients: 0 (0%)
  Headache, number of patients: 0 (0%)
  Hypotension, % of patients: 1 (1%)
  Hypotension, number of patients: 1 (1%)
  Infection, % of patients: 1 (1%)
  Infection, number of patients: 1 (1%)
  Injection site edema, % of patients: 9%
  Injection site edema, number of patients: 7
  Nausea, % of patients: 5%
  Nausea, number of patients: 4
  Pain, % of patients: 6%
  Pain, number of patients: 5
  Sweating, % of patients: 6%
  Sweating, number of patients: 5
  Syncope, % of patients: 1 (1%)
  Syncope, number of patients: 1 (1%)
[1]; 2.4 mg PBZ per injection site, 81 patients
  TOTAL NUMBER OF PATIENTS reporting treatment-emergent adverse experiences, number: 37
[1]; high dose groups, first and second treatments
  injection site soreness compared with placebo groups: Significantly more patients
[1]; in vivo
  injection site pain, mean duration: less than 10 days
  injection site pain, severity: mild to moderate
[1]; low dosages
  side effects at the injection site: caused some adverse side effected at the injection site
[2]
  irritation at the site of the injection: irritation of the muscle at the site of the injection can occur

Source: patent publication US20070249725A1, “Pharmaceutical formulations of sympathetic antagonist for the treatment of chronic muscle pain” (priority 2006, published 2007)
